A short description of the data set: Unit input response, intravenous bolus plasma concentration. The format is in vivo. As to conditions: human, read-out: Plasma Concentration of API A. An excerpt:
In predicting plasma concentration time profiles, we used two steps. First, we time scaled in vitro release profiles to use as our reference. Second, we obtained convolution of time-scaled in vitro release profile with unit input response (UIR) we obtained using intravenous bolus dose profile in a physiologically based pharmacokinetic model (PBPK).
FIG. 18 illustrates use of convolution of time-scaled in vitro release profile data (panel A, Table 4) with unit input response (UIR) obtained using an intravenous bolus dose (panel B, Table 5) to generate predictive plasma concentration-time profiles (panel C, Table 6). Panel A includes time-scaled mean in vitro release profiles of various solution-based subcutaneous long acting injectables of API. Panel C includes observed versus predicted mean plasma concentration-time profiles in humans for various solution-based subcutaneous long acting injectables of API A.

SMILES strings stand for the structures.

In the case of `CC(C)(C#Cc1ccc(-c2ccc(Cl)c3c(NS(C)(=O)=O)nn(CC(F)(F)F)c23)c([C@H](Cc2cc(F)cc(F)c2)NC(=O)Cn2nc(C(F)(F)F)c3c2C(F)(F)[C@@H]2C[C@H]32)n1)S(C)(=O)=O` [API A, Lenacapavir], for the setting “0.00 days”, the concentration at 0 days is 0 ng/mL. Moreover, the concentration at 0.04 days (0.04 days) came out at 162 ng/mL. Besides, the concentration at 0.08 days (0.08 days) was 27.7 ng/mL. Also, the concentration at 0.17 days (0.17 days) worked out at 14 ng/mL. Besides, the concentration at 0.25 days (0.25 days) came to 7.73 ng/mL. Moreover, the concentration at 0.33 days (0.33 days) worked out at 5.71 ng/mL. Also, under “0.50 days”, the concentration at 0.5 days came to 4.68 ng/mL. The concentration at 1 days (1.00 days) came to 4.33 ng/mL. Also, where the note is “2.00 days”, the concentration at 2 days is 4.37 ng/mL. Moreover, the concentration at 3 days (3.00 days) amounted to 4.29 ng/mL. Moreover, where the note is “5.00 days”, the concentration at 5 days was determined as 3.49 ng/mL. Also, the concentration at 7 days (7.00 days) turned out to be 3.45 ng/mL. The concentration at 9 days (9.00 days) came to 2.84 ng/mL. The concentration at 11 days (11.00 days) worked out at 2.61 ng/mL. Where the note is “14.00 days”, the concentration at 14 days was 2.33 ng/mL. In addition, the concentration at 20.92 days (20.92 days) was 1.71 ng/mL. In addition, the concentration at 27.92 days (27.92 days) turned out to be 1.1 ng/mL. The concentration at 34.96 days (34.96 days) came out at 0.71 ng/mL. Further, the concentration at 41.96 days (41.96 days) came out at 0.43 ng/mL. Also, for the setting “55.96 days”, the concentration at 55.96 days worked out at 0.25 ng/mL.

These data come from US20250354970A1, “SYSTEMS, METHODS, AND APPARATUSES FOR CHARACTERIZING RELEASE PROFILES FOR LONG-ACTING INJECTABLE MEDICATIONS” (Gilead Sciences, Inc., priority 2024, published 2025).
